# Assay results from PMC6895180 (Nature Communications, 2019).
# Where “and” joins values, the source holds several entries; their conditions need not be identical. Identical values can stand only once.
# Experiments:
# [1] = test system: AT1-KO T. b. brucei strain (derived from BS221); assay: Susceptibility assay, TbAT1-KO (derived from BS221); type: cell-based, Trypanosoma brucei brucei
# Method: (§1) Susceptibility assays with NY-SM[51], BS221[48] and TbAT1-KO[48] (derived from BS221) cells were performed using 10 concentrations of a 4-fold compound dilution series starting at 64 µM. Parasites were seeded at 4 × 10^3 parasites per well and exposed to drug compound for 72 h, after which resazurin (final concentration of 10 µg mL^−1) was added to the plates. Fluorescence intensities were determined after 6 h.
# [2] = test system: RNAi clones targeting FLA1BP, EndoG, RHS5, BCKDHA in T. brucei NY-SM cells; assay: Susceptibility of RNAi clones targeting FLA1BP, EndoG, RHS5, BCKDHA; type: cell-based, Trypanosoma brucei brucei
# Method: as §1
# The RNAi library[54] was induced for 68 h by the addition of 1 µg mL^−1 of tetracycline. After induction, the cells were exposed to different concentrations of 9 (corresponding to the IC98, IC99). Cells were maintained until a recovery of the resistant population was observed. Genomic DNA of the resistant parasite population was isolated, and the RNAi inserts were identified by PCR amplification, followed by cloning in highly competent Escherichia coli and sequencing. To validate the involvement of the identified genes, the RNAi inserts were back-cloned into a p2T7Bern vector[54] and transformed into NY-SM cells (the background strain of the RNAi library). The transformed NY-SM cells were cloned by limiting dilution. Two clones of each RNAi insert were exposed to tetracycline to induce the RNAi phenotype and subsequently subjected to different concentrations of 9 to determine the susceptibility of induced versus non-induced clones.
# Drug susceptibility assays with induced clones were performed as described above for NY-SM cells, with an initial induction period of 68 h with 1 µg mL^−1 tetracycline prior to the start of the drug susceptibility assay.
# Supplementary Figure 6: Drug sensitivity of RNAi clones
# Supplementary Figure 6: Drug susceptibility of RNAi clones targeting (A) FLA1BP (FLA1 binding protein), (B) EndoG (Endonuclease G), (C) RHS5 (Retrotransposon Hotspotprotein 5), (D) BCKDHA (branched chain keto acid dehydrogenase, i.e. 2-oxoisovalerate dehydrogenase). Results are expressed as the mean IC50 (µM) ± SEM and are based on two independent experiments with two biological replicates. + = tetracycline-induced clones. - = non-induced clones. All experiments were performed with two independent RNAi clones (A and B). Source data are provided as a Source Data file. […]
# [3] = test system: T. brucei Lister 427 cells; assay: Nucleotide pool analysis (HPLC); type: cell-based, Trypanosoma brucei; conditions: 25 μM, versus untreated trypanosomes
# Text: (1 picture or pasted object on this page, not shown here)
# The following primers were used: […]
# [4] = Metabolic stability, pooled human liver microsomes (phase I and II)
# Method: Mouse, rat, and pooled human liver microsomes were purchased from a commercial source (Corning) and stored at -80 °C. NADPH generating system solutions A and B and UGT reaction mix solutions A and B (Corning) were kept at -20°C. The test compound and the reference compounds diclofenac (MW […]
# microsomal stability assay was carried out based on the BD Biosciences Guidelines for Use (TF000017 Rev1.0) with minor adaptations. Metabolic stability of the compounds was studied through the CYP450 superfamily (phase I metabolism) by fortification with reduced nicotinamide adenine dinucleotide phosphate (NADPH) and through uridine glucuronosyl-transferase (UGT) enzymes (phase II metabolism) by fortification with uridine diphosphate glucuronic acid (UDPGA). For the CYP450 and other NADPH dependent enzymes, both compounds were incubated at 5 µM together with 0.5 mg mL-1 liver microsomes in potassium phosphate buffer in a reaction started by the addition of 1 mM NADPH […]
# At these time points, 20 µL was withdrawn from the reaction mixture and 80 µL cold acetonitrile (ACN) containing the internal standard tolbutamide, was added to inactivate the enzymes and precipitate the proteins. The mixture was vortexed for 30 s and centrifuged at 4 °C for 5 min at 15,000 rpm. The supernatant was stored at -80°C until analysis. For the UGT enzymes, both compounds were incubated at 5 µM together with 0.5 mg mL-1 liver microsomes in a reaction started by the addition of 2 mM UDPGA cofactor. The corresponding loss of parent compound was determined using liquid chromatography (UPLC) (Waters AquityTM) coupled with tandem quadrupole mass spectrometry (MS²) (Waters XevoTM), equipped with an electrospray ionization (ESI) interface and operated in multiple reaction monitoring (MRM) mode. […]
smiles,measurement,setting,value
"Nc1ncnc2c1ccn2[C@@H]1O[C@H](CO)C[C@H]1O [Compound 9, 3’-deoxytubercidin]",Inhibition (%),"[1]; TbAT1KO, 0.000976563 µM",0% and 2%
same,Inhibition (%),"[1]; TbAT1KO, 0.00390625 µM",5% and 10% and 0%
same,Inhibition (%),"[1]; TbAT1KO, 0.25 µM",89% and 94% and 60% and 62%
same,Inhibition (%),"[1]; TbAT1KO, 64 µM",100%
same,inhibition at 1 µM,"[1]; Trypanosoma brucei, TbAT1KO, 1 µM",98%
same,inhibition at 4 µM,"[1]; Trypanosoma brucei, TbAT1KO, 4 µM",99%
same,inhibition at 16 µM,"[1]; Trypanosoma brucei, TbAT1KO, 16 µM",99%
same,inhibition at 64 µM,"[1]; Trypanosoma brucei, TbAT1KO, 64 µM",99%
same,EC50,"[1]; Trypanosoma brucei, read-out: EC50 upon AT1-KO",150 ± 30 nM
same,"susceptibility of tetracycline-induced versus non-induced clones, remaining four constructs",[2],no significant differences
same,IC50,[2]; BCKDHA RNAi clone A +,7.45 nM
same,IC50,[2]; BCKDHA RNAi clone A -,7.58 nM and 7.81 nM
same,IC50,[2]; BCKDHA RNAi clone B -,7.47 nM
same,IC50,[2]; EndoG RNAi clone A +,7.75 nM
same,IC50,[2]; EndoG RNAi clone A -,8.23 nM and 7.93 nM and 7.81 nM
same,IC50,[2]; EndoG RNAi clone B +,7.63 nM and 7.94 nM and 8.26 nM
same,IC50,[2]; EndoG RNAi clone B -,7.81 nM
same,IC50,[2]; FLA1BP RNAi clone A -,6.66 nM
same,IC50,[2]; FLA1BP RNAi clone B +,7.81 nM and 7.59 nM
same,IC50,[2]; FLA1BP RNAi clone B -,7.64 nM and 7.01 nM
same,IC50,[2]; RHS5 RNAi clone A +,8.05 nM and 7.59 nM
same,IC50,[2]; RHS5 RNAi clone A -,7.93 nM
same,IC50,[2]; RHS5 RNAi clone B +,8.37 nM and 7.06 nM
same,IC50,"[2]; Trypanosoma brucei, BCKDHA RNAi clone A +",7.99 nM
same,IC50,"[2]; Trypanosoma brucei, BCKDHA RNAi clone A -",7.98 nM
same,IC50,"[2]; Trypanosoma brucei, BCKDHA RNAi clone B +",8.39 nM
same,IC50,"[2]; Trypanosoma brucei, BCKDHA RNAi clone B -",7.41 nM
same,IC50,"[2]; Trypanosoma brucei, EndoG RNAi clone A +",8.04 nM
same,IC50,"[2]; Trypanosoma brucei, EndoG RNAi clone A -",8.17 nM
same,IC50,"[2]; Trypanosoma brucei, EndoG RNAi clone B +",8.04 nM
same,IC50,"[2]; Trypanosoma brucei, EndoG RNAi clone B -",7.92 nM
same,IC50,"[2]; Trypanosoma brucei, FLA1BP RNAi clone A +",8.1 nM
same,IC50,"[2]; Trypanosoma brucei, FLA1BP RNAi clone A -",7.7 nM
same,IC50,"[2]; Trypanosoma brucei, FLA1BP RNAi clone B +",8.04 nM
same,IC50,"[2]; Trypanosoma brucei, FLA1BP RNAi clone B -",7.46 nM
same,IC50,"[2]; Trypanosoma brucei, RHS5 RNAi clone A +",8.1 nM
same,IC50,"[2]; Trypanosoma brucei, RHS5 RNAi clone A -",7.87 nM
same,IC50,"[2]; Trypanosoma brucei, RHS5 RNAi clone B +",8.3 nM
same,IC50,"[2]; Trypanosoma brucei, RHS5 RNAi clone B -",7.76 nM
same,effect on intracellular purine and pyrimidine nucleotide pools,[3],did not cause any change in the balance or total quantity of intracellular purine and pyrimidine nucleotides
same,"% analogue 9 remaining, EXP 1 / EXP 2","[4]; microsomes, 0 min, 5 µM",100%
same,"% analogue 9 remaining, Mean","[4]; microsomes, 0 min, 5 µM",100%
same,metabolic stability,"[4]; s9, 0.5 h",metabolically stable
